Reference: patent US20230025537A1, “MIXTURE COMPRISING HYDROGENATED SOYBEAN OIL AND THYMOL” (DSM IP Assets B.V., priority 2019, published 2023)
In brackets after ≈: the same amount, converted by molar mass. Like-named read-outs stand apart in the source and are kept apart here.

What was measured:
S. choleraesuis = assay: MIC by two-fold broth dilution method; assay type: cell-based; conditions: Salmonella enterica, 24 h, read-out: MIC values, Salmonella choleraesius
E. coli K88+ [1] = assay type: cell-based, Escherichia coli K88+; conditions: individually
Cl. perfringens = assay: microbe, parasite or virus in culture; assay type: cell-based; conditions: Clostridium perfringens, 24 h, read-out: MIC values, Clostrisium perfringens
E. coli K88+ [2] = assay: MIC by two-fold broth dilution method; assay type: cell-based; conditions: Escherichia coli, 24 h, read-out: MIC values, Escheria coli K88^+

Compound	MIC (S. choleraesuis) [µM]	Lag phase (λ) (E. coli K88+ [1]; dosage 0.25 mmol/L)	Lag phase (λ) (E. coli K88+ [1]; dosage 0.5 mmol/L)	MIC (Cl. perfringens) [µM]	MIC (E. coli K88+ [2]) [µM]
C=CCc1ccc(O)c(OC)c1 [Eugenol, eugenol]	2500 (≈ 411 µg/mL)	1.77	1.91	4000 (≈ 657 µg/mL)	2500 (≈ 411 µg/mL)
Cc1ccc(C(C)C)c(O)c1 [Thymol, thymol]	1000 (≈ 150 µg/mL)	1.66	1.65	1000 (≈ 150 µg/mL)	1500 (≈ 225 µg/mL)
